The numbers were not newly measured in patent EP4796171A2 (Zealand Pharma A/S, priority 2017, dated 2018), which cites them from elsewhere.

The conditions of this series: background statement; cited from earlier work.

Regarding `CC[C@H](C)[C@H](NC(=O)[C@H](Cc1ccccc1)NC(=O)[C@H](CC(=O)O)NC(=O)[C@H](CCCNC(=N)N)NC(=O)[C@H](C)NC(=O)[C@H](C)NC(=O)[C@H](CC(C)C)NC(=O)[C@H](CC(N)=O)NC(=O)[C@H](CC(=O)O)NC(=O)[C@H](CC(C)C)NC(=O)[C@@H](NC(=O)[C@@H](NC(=O)[C@H](CC(N)=O)NC(=O)[C@H](CCSC)NC(=O)[C@H](CCC(=O)O)NC(=O)[C@H](CC(=O)O)NC(=O)[C@H](CO)NC(=O)[C@H](Cc1ccccc1)NC(=O)[C@H](CO)NC(=O)CNC(=O)[C@H](CC(=O)O)NC(=O)CNC(=O)[C@@H](N)Cc1c[nH]cn1)[C@@H](C)O)[C@@H](C)CC)C(=O)N[C@@H](CC(N)=O)C(=O)N[C@@H](Cc1c[nH]c2ccccc12)C(=O)N[C@@H](CC(C)C)C(=O)N[C@H](C(=O)N[C@@H](CCC(N)=O)C(=O)N[C@H](C(=O)N[C@@H](CCCCN)C(=O)N[C@H](C(=O)N[C@H](C(=O)N[C@@H](CC(=O)O)C(=O)O)[C@@H](C)O)[C@@H](C)CC)[C@@H](C)O)[C@@H](C)CC` [Teduglutide], the Half-life result is “about two”.
